Source: article PMC10563230, “Unveiling poly(rC)-binding protein 2 as the target protein for curcusone C against prostate cancer: mechanism validation through click chemistry-activity based proteomics profiling approach” (BMC Cancer, 2023)

Assays:
[1] = system: Bax, Bcl-2, caspase-3 and PARP proteins in PC-3 cells; experiment: Western blot of mitochondrial apoptosis pathway proteins in PC-3 cells; type: cell-based, human; conditions: increasing concentration
Method: (§1) The culture medium containing PC-3 cells was discarded, lysis buffer was added, and the cells were collected with a scraper. The sample is then transferred to a centrifuge tube and the cells are fully lysed. Centrifuge the tube at 12,000 g and 4 ℃ for 10 min. After taking the supernatant, mix with the protein: protein loading buffer (v/v) = 5:1 ratio, and boil at 95 ℃ for 10 min to fully denaturate the protein. BCA protein concentration assay kit (Beyotime, China) was used to quantify the protein of experimental samples. Equal amounts of protein (30 µg) were loaded onto 7.5-12.5% SDS-PAGE gel. After adding the sample, the target protein was separated at 140 V constant pressure and was transferred under the condition of 250 mA constant current and the highest voltage. The transferred PVDF membrane (Thermo Fisher Scientific, MA, USA) was sealed in 5% skim milk (BIOFRox, Germany) for 2 h. The membrane was incubated in the antibody diluent of the corresponding protein at 4 ℃ overnight in a shaker and washed with TBST (Gibco, USA) for three times. Then it was placed in secondary antibody diluent for incubating 1.5 h at 4 ℃ in a shaker and washed again for three times. Finally, appropriate amount of ECL luminescent solution was taken to infiltrate PVDF membrane for development, and the strip was exposed and recorded.

PCBP2 [2] = experiment: DARTS (pronase digestion of PCBP2 in PC-3 protein extract); type: binding, human; conditions: 100 µM
Method: PC-3 cells protein was extracted, and the protein concentration was adjusted to 5 mg/mL and was packed into 99 µL/tube. Then, 10 mM and 5 mM Curcusone C solution of 1 µL was added to protein mixture of 99 µL and gently shaken at room temperature for 1 h. After the compounds were completely incubated, the samples were divided into one part every 20 µL, and 2 µL pronase solution with a certain concentration was added. The control group was added with 2 µL TNC buffer and incubated at room temperature for 30 min to ensure the same digestion time in each group. Digestion was terminated with 20X protease inhibitor complex and incubated on ice for 10 min. Finally, 6 µL 5X protein loading buffer was added to each sample and boiled at 100 ℃ for 10 min to fully denaturate the protein. The samples were centrifuged at 1100 g and 4 ℃ for 1 min and were performed western blot.

PCBP2 protein = PCBP2 protein (Homo sapiens, UniProt Q15366); experiment: SPR binding to immobilized PCBP2 (CM5 chip); conditions: analyte 31.25–500 µM
Sequence of PCBP2 protein (Q15366 whole entry): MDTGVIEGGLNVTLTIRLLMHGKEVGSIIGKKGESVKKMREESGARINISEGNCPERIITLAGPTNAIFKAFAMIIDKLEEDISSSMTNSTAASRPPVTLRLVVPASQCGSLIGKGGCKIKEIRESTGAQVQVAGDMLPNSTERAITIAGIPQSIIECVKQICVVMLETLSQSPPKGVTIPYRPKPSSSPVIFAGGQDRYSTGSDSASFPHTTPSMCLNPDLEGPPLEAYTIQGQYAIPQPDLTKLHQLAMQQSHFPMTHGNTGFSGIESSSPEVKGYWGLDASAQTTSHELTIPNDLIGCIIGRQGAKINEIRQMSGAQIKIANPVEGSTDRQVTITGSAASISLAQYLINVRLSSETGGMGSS
Method: The PCBP2 protein was first immobilized on the CM5 microarray using […], and then the analyte was run using a multi-cycle method. Briefly, small molecules were diluted to different concentrations with Running Buffer, and injected into channel Fc1-Fc2 at a flow rate of 30 µl/min. The association period was 60 s, and then dissociated for 90 s. The association and dissociation processed in the Running Buffer.

[3] = system: human prostate carcinoma PC-3 cells; experiment: CCK-8 cytotoxic activity assay, PC-3; type: cell-based; conditions: CCK-8, 48 h
Method: (§2) Human prostate carcinoma PC-3 cells and human proximal tubular HK-2 cells purchased from Chinese National Collection of Authenticated Cell Cultures were cultured in RPMI 1640 medium containing FBS (10%, Gibco, CA, USA) and Penicillin-Streptomycin (1%, Gibco, CA, USA). The cells were cultured at a concentration of 5% CO2 and a temperature of 37 ℃, and the medium was changed every two days.
(§3) CCK-8 assay was used to evaluate the proliferation and cytotoxicity of Curcusone C and its derivatives. Cells of 100 µL with a concentration of 5000 cells/mL to 8000 cells/mL were inoculated in 96-well plates for culturing 24 h, and the blank well was added with equal volume medium. After cell adhesion, 10 µL Curcusone C solution or its derivatives were added to each well of the experimental groups except the blank well to the final concentration of drug was 1 mM, […] respectively, and 10 µL DMSO (drug solvent) was added to the control well. The liquid was discarded 48 h later, and 100 µL medium and 10 µL CCK-8 reagent (Beyotime, Shanghai, China) were added to each well. After incubation for 0.5 to 1 h, the absorbance valued at 450 nm was measured and the cell inhibition rate or survival rate was calculated. Cell inhibition rate= […].

[4] = Tolerance and organ toxicity in tumor-bearing nude mice (body weight, HE staining); type: in vivo
Method: (§4) PC-3 cells in logarithmic growth phase were collected and the total number of cells required was calculated. Cells were re-suspended in a suitable volume of PBS and added to matrigel (PBS: matrigel = 1:1(v/v)) at a concentration of 5 × 10^6 cells/mL for subcutaneous inoculation on the right side of Balb/C nude mice. On day 0, 0.1 mL 5 × 10^6 cells/mL cell suspension (PBS: matrigel = 1:1(v/v)) was subcutaneously inoculated on the right neck and back of each nude mouse except the mice of normal group, to establish PC-3 subcutaneously transplanted tumor model. On day 8 after cell inoculation, the tumor grew to an average volume of 140.3 mm^3. The groups were randomly divided into normal group (Normal), control group (Control), methotrexate group (MTX 4.8 mg/kg), low dose group (C 5 mg/kg), medium dose group (C 10 mg/kg) and high dose group (C 20 mg/kg). Except for 3 mice in the normal group, 6 mice in the other groups were administered twice a week via tail vein (BIW). After 2 weeks of dosing, the dose was changed to once a day (QD). After 2 days of QD administration, tail vein injection was changed to intraperitoneal administration, and QD administration was continued for 5 days. Pharmacodynamic activity was evaluated based on tumor inhibition rate (TGITV) and tolerance was evaluated based on animal weight change and death. At the end of the experiment, all the animals were bled under isoflurane anesthesia and the serum was extracted. The heart, liver, spleen, lung and kidney of each nude mouse were collected and fixed in 4% paraformaldehyde or quick-frozen in liquid nitrogen and stored at -80 ℃ for tissue protein extraction.
(§5) Tissue samples were embedded, sectioned, dewaxed, stained, dehydrated and transparent, and sealed with neutral gum. After drying in a ventilated place, observing and recording under a microscope, the sections were stored at room temperature.

[5] = system: PCBP2, FHL3, TGF-β1, phosphorylated Smad2 and phosphorylated Smad7; experiment: Immunohistochemistry of tumor tissues of nude mice; type: in vivo, Balb/C nude mice
Method: Paraffin sections underwent successively dewaxing to water, antigen repair, blocking of endogenous peroxidase, serum blocking, primary antibody incubation, secondary antibody reaction, DAB color development, counterstaining of nuclei, dehydration and sealing, image acquisition and analysis, and microscopic examination.

PCBP2 [6] = experiment: Western blot of PCBP2 in PC-3 cells; type: cell-based, human; conditions: different concentrations
Method: as §1

[7] = system: PC-3 subcutaneously transplanted tumor; experiment: PC-3 subcutaneously transplanted tumor model in nude mice; type: in vivo, Balb/C nude mice; conditions: for tumor weight: last day of administration, control group 2885.5 ± 432.0 mg
Method: as §4, §5
Mouse tumor tissues were fixed with 4% PFA and washed with PBS, and TUNEL staining was performed with TUNEL apoptosis detection kit according to manufacturer’s instructions. Cell nucleus were stained with DAPI, slides were rinsed and imaged with fluorescence microscopy, and finally apoptosis was analyzed with image analyzer.

[8] = system: human proximal tubular HK-2 cells; experiment: CCK-8 cytotoxic activity assay, HK-2 normal cells; type: cell-based; conditions: HK-2, 48 h, CCK-8, 48 h
Method: as §2, §3

Structure (SMILES): C=C1CC[C@H](C(=C)C)[C@H]2C=C(C)C(=O)C3=C(C(=O)[C@](C)(O)C3)[C@H]12 [Curcusone C]
- level of Bcl-2 in PC-3 cells [1]: decreased gradually
- relative expression levels of Bax, cleaved caspase-3 and cleaved PARP in PC-3 cells [1]: increased gradually
- amount of enzymolysis by pronase of PCBP2 (PCBP2 [2]): lower than that of control group
- Kd (PCBP2 protein): 3150 µM
- IC50 ([3]; PC-3, 48 h): ~3.24 µM
- HE staining of lung tissue ([4]; 20 mg/kg): no interstitial thickening of lung tissue
- body weight of nude mice ([4]; 20 mg/kg): weight loss due to intolerance at the initial stage of drug administration
- HE staining of renal tissue ([4]; after administration of Curcusone C): no obvious abnormality
- HE staining of heart, liver, spleen, lung and kidney ([4]; compared with the normal group): no significant changes
- changes of TGF-β1, P-Smad2 and P-smad7 proteins in tumor tissues ([5]; IHC): downward trend
- content of FHL3 protein in tumor tissues ([5]; IHC, 20 mg/kg): higher than that in Control group
- expression of PCBP2 protein in tumor tissues ([5]; IHC, 5, 10, 20 mg/kg): decreased with the increase of drug concentration
- relative content of PCBP2 in PC-3 cells (PCBP2 [6]): decreased with the increase of drug concentration
- TUNEL apoptotic signal in tumor tissue ([7]; 5 mg/kg): no apoptotic cell signal
- tumor inhibition rate ([7]; 5 mg/kg): 18%
- tumor weight ([7]; 5 mg/kg): 2356.7 ± 445.7 mg
- TUNEL apoptotic signal in tumor tissue ([7]; 10 mg/kg): red marker signal
- tumor inhibition rate ([7]; 10 mg/kg): 33%
- tumor weight ([7]; 10 mg/kg): 1925.6 ± 242.1 mg
- HE staining of tumor tissue ([7]; 20 mg/kg): nuclear pyknosis and lysis
- TUNEL apoptotic signal in tumor tissue ([7]; 20 mg/kg): most obvious apoptotic signal
- tumor inhibition rate ([7]; 20 mg/kg): about 39%
- tumor weight ([7]; 20 mg/kg): 1759.6 ± 448.7 mg
- IC50 [8]: > 20 µM

Structure (SMILES): C=C1CC[C@H](C(=C)C)C2C=C(C)C(=O)C3=C(C(=O)[C@](C)(Cl)C3)C12 (stereo partly shown) [Derivative C-1]
- IC50 ([3]; PC-3, 48 h): 3.74 ± 0.4 µM

Structure (SMILES): C=C(C)[C@H]1CCC(O)(CCl)C2C3=C(C[C@@](C)(O)C3=O)C(=O)C(C)=CC21 (stereo partly shown) [Derivative C-2]
- IC50 ([3]; PC-3, 48 h): 6.4 ± 0.38 µM

Structure (SMILES): C=C(C)[C@H]1CCC(O)(CI)C2C3=C(C[C@@](C)(O)C3=O)C(=O)C(C)=CC21 (stereo partly shown) [Derivative C-3]
- IC50 ([3]; PC-3, 48 h): 10.3 ± 0.58 µM

Structure (SMILES): C=C(C=O)[C@H]1CCC(O)(CCl)C2C3=C(C[C@@](C)(O)C3=O)C(=O)C(C)=CC21 (stereo partly shown) [Derivative C-4]
- IC50 ([3]; PC-3, 48 h): 2.35 ± 0.37 µM

Structure (SMILES): C=C(C)C(=O)OCC(=C)[C@H]1CCC(O)(CCl)C2C3=C(C[C@@](C)(O)C3=O)C(=O)C(C)=CC21 (stereo partly shown) [Derivative C-5]
- IC50 ([3]; PC-3, 48 h): 2.05 ± 0.96 µM

Structure (SMILES): C=C(COC(=O)/C=C/C=C/C)[C@H]1CCC(O)(CCl)C2C3=C(C[C@@](C)(O)C3=O)C(=O)C(C)=CC21 (stereo partly shown) [Derivative C-6]
- IC50 ([3]; PC-3, 48 h): 1.81 ± 0.18 µM

Structure (SMILES): C=C(CO)[C@H]1CCC(O)(CCl)C2C3=C(C[C@@](C)(O)C3=O)C(=O)C(C)=CC21 (stereo partly shown) [Derivative C-7]
- IC50 ([3]; PC-3, 48 h): 16.3 ± 3.25 µM

Structure (SMILES): C=C(COC(C)=O)[C@H]1CCC(O)(CCl)C2C3=C(C[C@@](C)(O)C3=O)C(=O)C(C)=CC21 (stereo partly shown) [Derivative C-8]
- IC50 ([3]; PC-3, 48 h): 9.49 ± 0.17 µM

Structure (SMILES): C=C(COC(=O)CC(=O)OC)[C@H]1CCC(O)(CCl)C2C3=C(C[C@@](C)(O)C3=O)C(=O)C(C)=CC21 (stereo partly shown) [Derivative C-9]
- IC50 ([3]; PC-3, 48 h): 5.97 ± 1.16 µM

Structure (SMILES): C=C(C)[C@@H](CCC(=O)COC(C)=O)c1cc2c(c(=O)c(C)c1)C[C@@](C)(O)C2=O [Derivative C-10]
- IC50 ([3]; PC-3, 48 h): > 20 µM

Structure (SMILES): C=C(C)[C@@H](CCC(=O)CN(CC)CC)c1cc2c(c(=O)c(C)c1)C[C@@](C)(O)C2=O [Derivative C-11]
- IC50 ([3]; PC-3, 48 h): > 20 µM

Structure (SMILES): C=C(COc1ccc([N+](=O)[O-])cc1)[C@@H](CCC(=O)COc1ccc([N+](=O)[O-])cc1)c1cc2c(c(=O)c(C)c1)C[C@@](C)(O)C2=O [Derivative C-12]
- IC50 [3]: > 20 µM

Structure (SMILES): C=C(CCl)[C@H]1CCC(O)(CCl)C2C3=C(C[C@@](C)(O)C3=O)C(=O)C(C)=CC21 (stereo partly shown) [Derivative C-13]
- IC50 [3]: 2.96 ± 0.37 µM

Structure (SMILES): CN(Cc1cnc2nc(N)nc(N)c2n1)c1ccc(C(=O)N[C@@H](CCC(=O)O)C(=O)O)cc1 [Methotrexate, reference compound]
- IC50 ([3]; PC-3, 48 h): 0.89 ± 0.22 µM
- HE staining of kidney (glomerulus in the renal cortex) ([4]; 4.8 mg/kg): severe pyknosis
- HE staining of lung tissue ([4]; 4.8 mg/kg): significant pulmonary interstitial thickening and pneumonic pathological manifestations
- HE staining of tumor tissue ([7]; 4.8 mg/kg): nuclear pyknosis and lysis
- TUNEL apoptotic signal in tumor tissue ([7]; 4.8 mg/kg): most obvious apoptotic signal
- tumor inhibition rate ([7]; 4.8 mg/kg): 48%
- tumor weight ([7]; 4.8 mg/kg): 1503.4 ± 243.0 mg
- IC50 [8]: ~3.21 µM

Structure (SMILES): C#CCCCC(=O)O[C@]1(C)CC2=C(C1=O)C1C(=C)CC[C@H](C(=C)C)C1C=C(C)C2=O (stereo partly shown) [Positive probes]
- IC50 ([3]; PC-3, 48 h): 7.34 ± 0.2 µM
